The results in this text go back to publication PMC8829089, “The Pseudomonas aeruginosa homeostasis enzyme AlgL clears the periplasmic space of accumulated alginate during polymer biosynthesis” (The Journal of Biological Chemistry, 2022).

The target of this assay is T1, AlgL (NHis6-AlgL^28–362) (Pseudomonas aeruginosa, UniProt Q06749).
T1 construct: residues 28-362, signal peptide removed, N-terminal His6 tag (pET28b), expressed in E. coli; one molecule in the asymmetric unit
Briefly: X-ray crystal structure, […] Å. Type of assay: binding. The following applies: cocrystallized with 8 mM mannuronate trisaccharide (ManA3); only one sugar monomer seen in density, subsite +1 of active site.

T1 sequence (Q06749 28-362): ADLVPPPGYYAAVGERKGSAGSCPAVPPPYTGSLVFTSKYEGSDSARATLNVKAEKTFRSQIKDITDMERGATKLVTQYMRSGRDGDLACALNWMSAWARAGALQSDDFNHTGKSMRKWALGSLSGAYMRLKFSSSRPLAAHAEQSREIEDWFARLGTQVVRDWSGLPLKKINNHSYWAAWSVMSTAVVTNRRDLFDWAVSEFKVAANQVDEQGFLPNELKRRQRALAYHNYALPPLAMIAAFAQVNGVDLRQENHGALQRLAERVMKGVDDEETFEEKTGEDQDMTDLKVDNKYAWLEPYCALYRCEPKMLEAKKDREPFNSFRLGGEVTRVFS

For the compound `O=C(O)[C@H]1OC(O)[C@@H](O)[C@@H](O)[C@@H]1O` (stereo partly shown) [ManA, mannuronate], the “X-ray crystal structure, 1.64 Å” value was “we were only able to detect electron density for a sugar monomer”.
